Assay results reported in patent US12370159B2, “Compositions and methods of use of beta-hydroxy-beta-methylbutyrate (HMB) and probiotics” (priority 2016, dated 2025).

Tests used:
[1] = HMB kinetics before and after two weeks of BC30 probiotic supplementation (Example 2)
[2] = after HMB is fed; cited from earlier work
[3] = healthy young or old adults; cited from earlier work

Compound: Calcium β-Hydroxy-β-Methylbutyrate [CaHMB]
- Probiotic-induced increase in peak plasma HMB levels, CaHMB compared with HMB-FA [1]: larger

Compound: CC(C)(O)CC(=O)O [HMB, β-hydroxy-β-methylbutyric acid]
- Loss of HMB to urine [2]: 20-50%
- Side effects [3]: no side effects
